Reference: patent publication US20230087609A1, “USE OF A SOLUBLE GUANYLATE CYCLASE (sGC) STIMULATOR OR OF A COMBINATION OF A sGC STIMULATOR AND AN sGC ACTIVATOR FOR CONDITIONS WHEREIN THE HEME GROUP OF sGC IS OXIDIZED OR WHEREIN sGC IS DEFICIENT IN HEME” (Universiteit Maastricht, priority 2020, published 2023)

System: C57B16/J mice, transient occlusion of the middle cerebral artery (tMCAO)
Assay: tMCAO ischemia model, infarct size
Type: in vivo, mouse
Conditions: 0.1 mg/kg i.p. 1 h after reperfusion; 1 h tMCAO, 24 h reperfusion; versus non-treated animals (FIG. 10)
Procedure: C57B16/J mice were anesthetized with isoflurane (0.6% in oxygen). The animal was placed on a heating-pad, and rectal temperature was maintained at 37.0° C. Transient cerebral ischemia was induced using an intraluminal filament technique. Using a surgical microscope (Tecnoscopio OPMI pico, Carl Zeiss, Meditec Iberia SA, Spain), a midline neck incision was made and the right common and external carotid arteries were isolated and permanently ligated. A microvascular temporarily ligature was placed on the internal carotid artery to temporarily stop the blood flow. A silicon rubber-coated monofilament (6023910PK10, Doccol, USA) was inserted through a small incision into the common carotid artery and advanced into the internal carotid artery until a resistance is felt. […]
After sacrificing the mice, brains were quickly removed and cut in four 2-mm thick coronal sections using a mouse brain slice matrix (Harvard Apparatus, USA). […] Indirect infarct volumes were calculated by volumetry (ImageJ software, National Institutes of Health, USA) according to the following equation: Vindirect (mm^3)=Vinfarct×(1−(Vih−Vch)/Vch), where the term (Vih−Vch) represents the volume difference between the ischemic hemisphere and the control hemisphere and (Vih−Vch)/Vch expresses this difference as a percentage of the control hemisphere.

COC(=O)N(C)c1c(N)nc(-c2nn(Cc3ccccc3F)c3ncccc23)nc1N [BAY 63-2521, riociguat]
infarct size / infarct volume: reduces infarct size
